The target in the first test is FXR (Homo sapiens (Human), UniProt Q96RI1). As to the kind of experiment: transient human FXR/Gal4-luciferase reporter assay.
Sequence of FXR (Q96RI1 262-486): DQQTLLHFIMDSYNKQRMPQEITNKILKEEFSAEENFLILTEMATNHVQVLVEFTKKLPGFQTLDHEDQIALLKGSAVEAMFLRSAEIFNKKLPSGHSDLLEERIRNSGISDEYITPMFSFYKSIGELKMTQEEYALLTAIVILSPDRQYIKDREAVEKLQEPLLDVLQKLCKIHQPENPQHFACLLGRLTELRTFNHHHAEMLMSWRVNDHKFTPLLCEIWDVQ
Conditions: not given
It is filed as cell-based. The essentials: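 HEK293 cells stably carrying a 5×Gal4 response element–firefly luciferase reporter were transiently transfected overnight with a Gal4 DBD–human FXR LBD fusion plasmid. Compound was added in DMSO and cells were incubated overnight at 37 °C, 5% CO2. Activity was read as Steady-Glo luminescence.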
`COc1ncc(-c2cccc(N(CC34CCC(c5ccc(C(F)(F)F)cn5)(CC3)CC4)C(=O)C34CC(F)(C3)C4)c2)cn1` [Example 494, 3-fluoro-N-(3-(2-methoxypyrimidin-5-yl)phenyl)-N-((4-(5-(trifluoromethyl)pyridin-2-yl)bicyclo[2.2.2]octan-1-yl)methyl)bicyclo[1.1.1]pentane-1-carboxamide] displayed an EC50 of 516 nM.

Turning to `CCc1cnc(-c2cccc(N(CC34CCC(c5ccc(C(F)(F)F)cn5)(CC3)CC4)C(=O)C34CC(F)(C3)C4)c2)nc1` [Example 496, N-(3-(5-ethylpyrimidin-2-yl)phenyl)-3-fluoro-N-((4-(5-(trifluoromethyl)pyridin-2-yl)bicyclo[2.2.2]octan-1-yl)methyl)bicyclo[1.1.1]pentane-1-carboxamide], the EC50 turned out to be 539 nM.

For `CCc1ccc(-c2cccc(N(CC34CCC(c5ccc(C(F)(F)F)cn5)(CC3)CC4)C(=O)C34CC(F)(C3)C4)c2)cc1` [Example 497, N-(4′-ethyl-[1,1′-biphenyl]-3-yl)-3-fluoro-N-((4-(5-(trifluoromethyl)pyridin-2-yl)bicyclo[2.2.2]octan-1-yl)methyl)bicyclo[1.1.1]pentane-1-carboxamide], the EC50 amounted to 989 nM. Against the preceding compound, the EC50 is about 1.8-fold higher.

The compound `CCOc1cnc(-c2cccc(N(CC34CCC(c5ccc(C(F)(F)F)cn5)(CC3)CC4)C(=O)C34CC(F)(C3)C4)c2)nc1` [Example 498, N-(3-(5-ethoxypyrimidin-2-yl)phenyl)-3-fluoro-N-((4-(5-(trifluoromethyl)pyridin-2-yl)bicyclo[2.2.2]octan-1-yl)methyl)bicyclo[1.1.1]pentane-1-carboxamide] yielded an EC50 of 524 nM.

For the compound `O=C(N(CC12CCC(c3ccc(C(F)(F)F)cn3)(CC1)CC2)c1cccc(-c2ncc(OC(F)F)cn2)c1)C12CC(F)(C1)C2` [Example 499, N-(3-(5-(difluoromethoxy)pyrimidin-2-yl)phenyl)-3-fluoro-N-((4-(5-(trifluoromethyl)pyridin-2-yl)bicyclo[2.2.2]octan-1-yl)methyl)bicyclo[1.1.1]pentane-1-carboxamide], it took 135 nM to reach a half-maximal effect (EC50). Compared with the last compound, the EC50 is about 3.9-fold lower.

For the compound `COc1cnc(-c2cccc(N(CC34CCC(c5ccc(C(F)(F)F)cn5)(CC3)CC4)C(=O)C34CC(F)(C3)C4)c2)nc1` [Example 500, 3-fluoro-N-(3-(5-methoxypyrimidin-2-yl)phenyl)-N-((4-(5-(trifluoromethyl)pyridin-2-yl)bicyclo[2.2.2]octan-1-yl)methyl)bicyclo[1.1.1]pentane-1-carboxamide], a half-maximal effect (EC50) was put at 810 nM.

In the case of `CCOc1ncc(-c2cccc(N(CC34CCC(c5nc(C(C)(C)C)no5)(CC3)CC4)C(=O)[C@H]3C[C@@H](OC)C3)c2)cn1` [Example 502, (1S,3S)—N-((4-(3-(tert-butyl)-1,2,4-oxadiazol-5-yl)bicyclo[2.2.2]octan-1-yl)methyl)-N-(3-(2-ethoxypyrimidin-5-yl)phenyl)-3-methoxycyclobutane-1-carboxamide], the EC50 was 689 nM.

`CCOc1ncc(-c2cccc(N(CC34CCC(c5nc(C(C)(C)C)no5)(CC3)CC4)C(=O)C3(C)COC3)c2)cn1` [Example 503, N-((4-(3-(tert-butyl)-1,2,4-oxadiazol-5-yl)bicyclo[2.2.2]octan-1-yl)methyl)-N-(3-(2-ethoxypyrimidin-5-yl)phenyl)-3-methyloxetane-3-carboxamide] came in with an EC50 of 1580 nM.

Compound `CCOc1ncc(-c2cccc(N(CC34CCC(c5nc(C(C)(C)C)no5)(CC3)CC4)C(=O)C34CC(NC(=O)OC(C)(C)C)(C3)C4)c2)cn1` [Example 505, tert-butyl (3-(((4-(3-(tert-butyl)-1,2,4-oxadiazol-5-yl)bicyclo[2.2.2]octan-1-yl)methyl) (3-(2-ethoxypyrimidin-5-yl)phenyl)carbamoyl)bicyclo[1.1.1]pentan-1-yl)carbamate] gave an EC50 of 621 nM.

Regarding `CCOc1ncc(-c2cccc(N(CC34CCC(c5nc(C(C)(C)C)no5)(CC3)CC4)C(=O)C34CC(N)(C3)C4)c2)cn1` [Example 506, 3-amino-N-((4-(3-(tert-butyl)-1,2,4-oxadiazol-5-yl)bicyclo[2.2.2]octan-1-yl)methyl)-N-(3-(2-ethoxypyrimidin-5-yl)phenyl)bicyclo[1.1.1]pentane-1-carboxamide], a half-maximal effect (EC50) was put at 2370 nM.

`CCOc1ncc(-c2cccc(N(CC34CCC(c5nc(C(C)(C)C)no5)(CC3)CC4)C(=O)C3CC(O)(C(F)(F)F)C3)c2)cn1` [Example 507, (1S,3S)—N-((4-(3-(tert-butyl)-1,2,4-oxadiazol-5-yl)bicyclo[2.2.2]octan-1-yl)methyl)-N-(3-(2-ethoxypyrimidin-5-yl)phenyl)-3-hydroxy-3-(trifluoromethyl)cyclobutane-1-carboxamide] displayed an EC50 of 188 nM.

As for `CCOc1ncc(-c2cccc(N(CC34CCC(c5noc(C(C)(C)C)n5)(CC3)CC4)C(=O)C3CC(O)(C(F)(F)F)C3)c2)cn1` [Example 509, (1S,3S)—N-((4-(5-(tert-butyl)-1,2,4-oxadiazol-3-yl)bicyclo[2.2.2]octan-1-yl)methyl)-N-(3-(2-ethoxypyrimidin-5-yl)phenyl)-3-hydroxy-3-(trifluoromethyl)cyclobutane-1-carboxamide], the EC50 was determined as 230 nM.

Turning to `CCOc1ncc(-c2cccc(N(CC34CCC(c5noc(C(C)(C)C)n5)(CC3)CC4)C(=O)C3(C)COC3)c2)cn1` [Example 510, N-((4-(5-(tert-butyl)-1,2,4-oxadiazol-3-yl)bicyclo[2.2.2]octan-1-yl)methyl)-N-(3-(2-ethoxypyrimidin-5-yl)phenyl)-3-methyloxetane-3-carboxamide], the EC50 was found to be 974 nM.

Take `CCOc1ncc(-c2cccc(N(CC34CCC(c5noc(C(C)(C)C)n5)(CC3)CC4)C(=O)[C@H]3C[C@@H](OC)C3)c2)cn1` [Example 511, (1S,3S)—N-((4-(5-(tert-butyl)-1,2,4-oxadiazol-3-yl)bicyclo[2.2.2]octan-1-yl)methyl)-N-(3-(2-ethoxypyrimidin-5-yl)phenyl)-3-methoxycyclobutane-1-carboxamide]: the response was half-maximal at 411 nM (EC50).

The test is the same for the next values; noted with them: Gal4-hFXR fusion construct, HEK293 reporter cells; response relative to 8 μM GW-4064.
In turn, `O=C(N(CC12CCC(c3ccc(C(F)(F)F)cn3)(CC1)CC2)c1cccc(-c2ccc(OC(F)F)cn2)c1)C12CC(F)(C1)C2` [Example 495, N-(3-(5-(difluoromethoxy)pyridin-2-yl)phenyl)-3-fluoro-N-((4-(5-(trifluoromethyl)pyridin-2-yl)bicyclo[2.2.2]octan-1-yl)methyl)bicyclo[1.1.1]pentane-1-carboxamide] came in with an EC50 of 271 nM.

In turn, `CC(C)(C)c1nc(C23CCC(CN(c4cccc(-c5ccc(NS(C)(=O)=O)cc5)c4)C(=O)[C@H]4C[C@@](C)(O)C4)(CC2)CC3)no1` [Example 512, (cis)-N-((4-(5-(tert-butyl)-1,2,4-oxadiazol-3-yl)bicyclo[2.2.2]octan-1-yl)methyl)-3-hydroxy-3-methyl-N-(4′-(methylsulfonamido)-[1,1′-biphenyl]-3-yl)cyclobutane-1-carboxamide] yielded an EC50 of 909 nM.

On to `CC(C)(C)c1nc(C23CCC(CN(C(=O)C4CC(O)(C(F)(F)F)C4)c4cccc(-c5ccc(NS(C)(=O)=O)cc5)c4)(CC2)CC3)no1` [Example 513, (1S,3S)—N-((4-(5-(tert-butyl)-1,2,4-oxadiazol-3-yl)bicyclo[2.2.2]octan-1-yl)methyl)-3-hydroxy-N-(4′-(methylsulfonamido)-[1,1′-biphenyl]-3-yl)-3-(trifluoromethyl)cyclobutane-1-carboxamide], for which a half-maximal response (EC50) required 922 nM.

The values above are taken from patent publication US11254663B2 (BRISTOL-MYERS SQUIBB COMPANY, priority 2019, dated 2022).
